Measured values reported in ChEMBL document CHEMBL1201862, “PubChem BioAssay data set” (2004).
Activity calls are given as the source filed them. The rule behind the calls is not given here.

Experiments:
[1] = target: T1, High affinity choline transporter 1 (Homo sapiens, UniProt Q9GZV3); assay: CHT inhibitors, dose response, cell-based, 5-point CRC, membrane potential dye (AID 504840); type: functional
T1 sequence (Q9GZV3 whole entry): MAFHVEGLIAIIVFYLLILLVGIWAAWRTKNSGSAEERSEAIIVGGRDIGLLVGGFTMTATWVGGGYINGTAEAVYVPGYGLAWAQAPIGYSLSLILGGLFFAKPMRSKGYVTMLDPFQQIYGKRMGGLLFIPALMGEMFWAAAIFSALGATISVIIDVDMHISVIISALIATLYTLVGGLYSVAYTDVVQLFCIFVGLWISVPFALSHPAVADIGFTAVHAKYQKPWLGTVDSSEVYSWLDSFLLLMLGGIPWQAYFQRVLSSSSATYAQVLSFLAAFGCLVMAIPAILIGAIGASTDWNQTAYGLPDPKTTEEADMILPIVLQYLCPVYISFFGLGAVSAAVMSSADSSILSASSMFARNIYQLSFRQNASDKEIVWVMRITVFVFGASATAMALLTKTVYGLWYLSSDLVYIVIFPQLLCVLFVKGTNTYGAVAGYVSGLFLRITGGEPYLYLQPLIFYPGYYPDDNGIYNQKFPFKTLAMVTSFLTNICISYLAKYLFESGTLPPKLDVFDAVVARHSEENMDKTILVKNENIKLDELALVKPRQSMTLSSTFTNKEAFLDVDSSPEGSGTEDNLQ

[2] = target: T1, High affinity choline transporter 1; assay: CHT inhibitors, dose response, cell-based, 10-point CRC, membrane potential dye (AID 588401); type: functional;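 note: membrane potential dye fluorescence of choline-evoked depolarization via CHT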

## Cc1nnc(NCc2cccc(Cl)c2)c2ccccc12
[1]
  IC50: 9.8 µM (active)
[2]
  IC50: 4.74 µM (active)
